# Earlier results in paper PMC6105163, “Abaloparatide Exerts Bone Anabolic Effects with Less Stimulation of Bone Resorption-Related Factors: A Comparison with Teriparatide” (Calcified Tissue International, 2018).
# Key:
# osteoblasts = details: cited from earlier work
# Description: The mechanism of action of TPTD on bone turnover is not fully understood; however, many studies have examined the molecular mechanisms in recent decades. According to a previous study, PTH(1–34) acts on osteoblasts and indirectly induces bone resorption by activating osteoclasts. PTH(1–34) increases the expression of receptor activator of nuclear factor kappa-B ligand (RANKL) and macrophage colony-stimulating factor (M-CSF) and decreases the expression of osteoprotegerin (OPG), a decoy receptor of RANKL [9]. These effects of PTH(1–34) further promote the maturation of osteoclasts with ... || We next investigated the effect of ABL on bone formation in SaOS-2. In the previous study, bone formation related to PTH1R signaling was enhanced by the intermittent treatment of TPTD in osteoblasts. This anabolic effect of intermittent TPTD treatment was mediated by IGF-1, which promoted the differentiation and mineralization of osteoblasts. We therefore evaluated the effects on IGF-1 and osteocalcin, a marker gene for differentiated osteoblasts, with a repeating 6-h exposure cycle of ABL and TPTD in SaOS-2 (Fig. 3a). As expected, ABL as well as TPTD increased the gene expressio ...
# osteocytes = details: ref [11], [12]; cited from earlier work
# Description: The mechanism of action of TPTD on bone turnover is not fully understood; however, many studies have examined the molecular mechanisms in recent decades. According to a previous study, PTH(1–34) acts on osteoblasts and indirectly induces bone resorption by activating osteoclasts. PTH(1–34) increases the expression of receptor activator of nuclear factor kappa-B ligand (RANKL) and macrophage colony-stimulating factor (M-CSF) and decreases the expression of osteoprotegerin (OPG), a decoy receptor of RANKL [9]. These effects of PTH(1–34) further promote the maturation of osteoclasts with ... || Finally, we evaluated the effects of ABL on WNT signaling antagonists. WNT signaling antagonists such as sclerostin and DKK1 are secreted from osteocytes. They inhibit bone formation by antagonizing canonical WNT ligands and subsequently suppress WNT-mediated signaling pathways. […] We therefore evaluated the effects of ABL on WNT signaling antagonists in comparison with TPTD. It is generally known that human osteocytes have been diffic ...
# osteoporosis = details: cited from earlier work
# Description: In fact, teriparatide (TPTD), the N-terminal 34 amino acids fragment of PTH, is currently the only bone anabolic agent used for the treatment of osteoporosis, by daily or weekly subcutaneous administration.
substance,measurement,setting,value
human PTH(1–34) [Teriparatide],bone formation related to PTH1R signaling,"osteoblasts; intermittent treatment, osteoblasts, ref [18]",enhanced
same,OPG expression,osteoblasts; ref [9],decreases
same,RANKL and M-CSF expression,osteoblasts; ref [9],increases
same,IGF-1 expression,osteoblasts; ref [10],enhancement
same,expression of WNT signaling antagonists in osteocytes,osteocytes,inhibited
same,secretion of WNT signaling antagonists such as sclerostin and DKK1,osteocytes,inhibiting
same,BMD vs antiresorptive agents such as bisphosphonates,osteoporosis; daily or weekly subcutaneous,greater than antiresorptive agents
same,effect on the hip,osteoporosis; daily or weekly subcutaneous,modest
same,blood calcium,osteoporosis; in vivo,mildly increased
